Source: ChEMBL document CHEMBL1201862, “PubChem BioAssay data set” (2004)
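In this assay, cells in 96-well plates receive the compound at five concentrations for 48 hours. Endpoints are linearly interpolated between the surrounding concentrations. Abbreviation: GI50, concentration required for 50% inhibition of growth.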 The source made the active and inactive calls. No stated cut-off is given here; in the data, active = GI50 up to about 1.1 µM and inactive = higher.

Key:
Experiment in all cases: growth of human tumour cells (NCI), 48 h
786-0 = tested on: 786-0
CAKI-1 = tested on: CAKI-1
HOP-62 = tested on: HOP-62
LOX IMVI = tested on: LOX IMVI
MOLT-4 = tested on: MOLT-4
NCI-H226 = tested on: NCI-H226
NCI-H23 = tested on: NCI-H23
NCI-H460 = tested on: NCI-H460
OVCAR-3 = tested on: OVCAR-3
OVCAR-5 = tested on: OVCAR-5
RPMI-8226 = tested on: RPMI-8226
SF-539 = tested on: SF-539
SNB-75 = tested on: SNB-75
SW-620 = tested on: SW-620
TK-10 = tested on: TK-10
UACC-257 = tested on: UACC-257
UACC-62 = tested on: UACC-62
UO-31 = tested on: UO-31

SMILES | GI50 (786-0) | GI50 (CAKI-1) | GI50 (HOP-62) | GI50 (LOX IMVI) | GI50 (MOLT-4) | GI50 (NCI-H226) | GI50 (NCI-H23) | GI50 (NCI-H460) | GI50 (OVCAR-3) | GI50 (OVCAR-5) | GI50 (RPMI-8226) | GI50 (SF-539) | GI50 (SNB-75) | GI50 (SW-620) | GI50 (TK-10) | GI50 (UACC-257) | GI50 (UACC-62) | GI50 (UO-31)
c1ccc(C2SCc3nc4ccccc4n32)cc1 (stereo not drawn) | > 100 µM (inactive) | 42.7 µM (inactive) | 43.8 µM (inactive) | 39.9 µM (inactive) | 28.2 µM (inactive) | 17.8 µM (inactive) | 31.5 µM (inactive) | 40.8 µM (inactive) | 19.1 µM (inactive) | > 100 µM (inactive) | 20.1 µM (inactive) | 22.5 µM (inactive) | 3.14 µM (inactive) | 51.4 µM (inactive) | 52.4 µM (inactive) | 27.8 µM (inactive) | 37.2 µM (inactive) | 24.6 µM (inactive)
O=C1C2=C(c3ccccc31)C(c1ccccc1Cl)N1C(=O)CSC1=N2 (stereo not drawn) | > 100 µM (inactive) | > 100 µM (inactive) | > 100 µM (inactive) | > 100 µM (inactive) | 33.9 µM (inactive) | > 100 µM (inactive) | 85.7 µM (inactive) | > 100 µM (inactive) | 87.3 µM (inactive) | > 100 µM (inactive) | 39.8 µM (inactive) | > 100 µM (inactive) | 39.4 µM (inactive) | > 100 µM (inactive) | > 100 µM (inactive) | > 100 µM (inactive) | 59.4 µM (inactive) | 54 µM (inactive)
N#CCCN(CCC#N)c1ccc(/C=C(/NC(=O)c2cc([N+](=O)[O-])ccc2Cl)C(=O)NN)cc1 | > 100 µM (inactive) | > 100 µM (inactive) | > 100 µM (inactive) | 41.4 µM (inactive) | 44.8 µM (inactive) | > 100 µM (inactive) | > 100 µM (inactive) | > 100 µM (inactive) | 77.8 µM (inactive) | > 100 µM (inactive) | 29.6 µM (inactive) | > 100 µM (inactive) | > 100 µM (inactive) | > 100 µM (inactive) | > 100 µM (inactive) | > 100 µM (inactive) | > 100 µM (inactive) | > 100 µM (inactive)
CCOC(=O)C1=C(O)C(=O)c2ccoc2C1=O | > 100 µM (inactive) | > 100 µM (inactive) | > 100 µM (inactive) | > 100 µM (inactive) | > 100 µM (inactive) | > 100 µM (inactive) | > 100 µM (inactive) | > 100 µM (inactive) | > 100 µM (inactive) | > 100 µM (inactive) | > 100 µM (inactive) | > 100 µM (inactive) | > 100 µM (inactive) | > 100 µM (inactive) | > 100 µM (inactive) | > 100 µM (inactive) | > 100 µM (inactive) | > 100 µM (inactive)
Cc1ccc(S(=O)(=O)C2=c3nc4ccccc4cc3=C3C(=O)c4ccccc4C(=O)C32)cc1 (stereo not drawn) | > 100 µM (inactive) | > 100 µM (inactive) | > 100 µM (inactive) | > 100 µM (inactive) | > 100 µM (inactive) | > 100 µM (inactive) | > 100 µM (inactive) | > 100 µM (inactive) | > 100 µM (inactive) | > 100 µM (inactive) | > 100 µM (inactive) | > 100 µM (inactive) | 43.3 µM (inactive) | > 100 µM (inactive) | > 100 µM (inactive) | > 100 µM (inactive) | > 100 µM (inactive) | > 100 µM (inactive)
Nc1nc(N)c(CCCCc2ccccc2)c(/C=C/c2ccc([N+](=O)[O-])cc2)n1 | 0.785 µM (active) | 3.92 µM (inactive) | 2.77 µM (inactive) | 1.85 µM (inactive) | 1.14 µM (inactive) | 26.1 µM (inactive) | 3.86 µM (inactive) | 0.873 µM (active) | 2.43 µM (inactive) | 3.87 µM (inactive) | 3.31 µM (inactive) | 2.16 µM (inactive) | 2.47 µM (inactive) | 1.24 µM (inactive) | 1.8 µM (inactive) | 2.51 µM (inactive) | 2.07 µM (inactive) | 1.91 µM (inactive)
